Laboratory results reported in patent US4537924A, “Quadratic acid amide derivatives, their use as stabilizers, and synthetic resins treated therewith” (Chemische Werke Huels, AG, priority 1982, dated 1985).
Converted amounts (≈) assume the structure as drawn. Where two headings read alike, the source gives them in different places.

How the values were obtained:
[1] = Volatility of pure compound by thermogravimetric determination; assay type: physicochemical; settings: heating-up rate 10° C./min; for Volatility: temperature at weight drop of 2%: weight drop 2%; for Volatility: temperature at weight drop of 50%: weight drop 50%; for Volatility: temperature at weight drop of 80%: weight drop 80%
Method: To test volatility, the quadratic acid bisamides or the synthetic resins treated therewith were subjected to thermogravimetric determination (cf. Tables 1 and 6). The heating-up rate was 10° C./min. A DuPont 950 Thermogravimetric Analyzer was applied.

[2] = Extraction of stabilizers from polyamide 12 with boiling organic solvents; assay type: physicochemical; settings: 0.25% by weight stabilizer
Source text: (a) Polyamide 12 (Number Average Mol. Wt. 30,000: Producer: Chemische Werke Hus AG, D-4370 Marl)
In a pug mill, polyamide 12 granules were combined with quadratic acid bisamides, and the resultant mixture was homogenized in a twin screw extruder. The granulated material obtained in this way was then molded into panels having a thickness of 1 mm, and chips of 30×10 mm were then cut therefrom.
(§1) The solubility values in water and dilute acetic acid (Tables 2 and 3), as well as the extraction values (Tables 4 and 7) confirm the low migrating tendency of the compounds according to the present invention.

[3] = Light exposure test (buckling test) with stabilizers in polyamide 12
[4] = Extraction of stabilizers from polyether esters with boiling organic solvents; assay type: physicochemical; settings: from polyether ester
Source text: (b) Polyether Esters (Number Average Mol. Wt. 25,000)
Into a polyether ester melt based on terephthalic acid, 1,4-butanediol, and polytetrahydrofuran, 0.5% by weight of the respective quadratic acid amide was introduced. After processing into granules, the latter were used to make press-molded panels of a thickness of 1 mm, from which chips were cut of 30×10 mm.
as §1

[5] = Volatility (sublimation) of stabilizers from polyether esters; assay type: physicochemical; settings: from polyether ester; 195° C. and 0.1 mbar; 0.5% by weight
[6] = Solubility of pure compound in 10% acetic acid; assay type: physicochemical; settings: 22° C.; for solubility: 10% acetic acid
Source text: as §1

[7] = Light exposure test (buckling test) with stabilizers in polypropylene
[8] = Solubility of pure compound in water; assay type: physicochemical
Source text: as §1

[9] = with costabilizer mixture (benzotriazole, hexamethylenediamine phenol, phosphite; 0.25% each), 0.25% by wt. stabilizer (for salts: refers to the bisamide)
[10] = without costabilizer, 0.25% by wt. stabilizer (for salts: refers to the bisamide on which the salt is based)

SMILES	Stabilizing effect in polyamide 12, light exposure to break [3, 9]	Stabilizing effect in polyamide 12, light exposure to break [3, 10] [h]	solubility ([8]; 22° C.) [µg/mL]	solubility ([8]; 100° C.) [µg/mL]	other results
CC1(C)CC2(CC(C)(C)N1)OC1(CCCCCCCCCCC1)NC2=O [B, 2,2,4,4-tetramethyl-3,20-diaza-7-oxa-21-oxodispiro[5,1,11,2]heneicosane]					Volatility: temperature at weight drop of 2% [1]: 200 °C; Volatility: temperature at weight drop of 50% [1]: 280 °C; Volatility: temperature at weight drop of 80% [1]: 300 °C; Degree of extraction after 8 hour treatment ([2]; boiling chloroform): 97.2 % of Maximally Extractable Amo; Degree of extraction after 8 hour treatment ([2]; boiling methanol): 83.1 % of Maximally Extractable Amo
CCN(CC)c1c([O-])c(=[N+](CC)CC)c1=O [C, 1,3-Bis(diethylamino)cyclobutenediylium-2,4-diolate, reference compound]	511 h	460			
CC1(C)CC(OC(=O)CCCCCCCCC(=O)OC2CC(C)(C)NC(C)(C)C2)CC(C)(C)N1 [Comparative Example A, sebacic acid di-4-hydroxy-2,2,6,6-tetramethylpiperidine ester]					Degree of extraction after 8-hour treatment ([4]; methanol (65° C.)): 60 % of Maximally Extractable Qua; Degree of extraction after 8-hour treatment ([4]; toluene (110° C.)): 53 % of Maximally Extractable Qua; Degree of sublimation after 24-hour treatment [5]: 88 % of Maximally Sublimable Quan; solubility [6]: 402000 µg/mL (≈ 836000 µM); Volatility: temperature at weight drop of 2% [1]: 220 °C; Volatility: temperature at weight drop of 50% [1]: 285 °C; Volatility: temperature at weight drop of 80% [1]: 300 °C; Degree of extraction after 8 hour treatment ([2]; boiling chloroform): 69.9 % of Maximally Extractable Amo; Degree of extraction after 8 hour treatment ([2]; boiling methanol): 68.7 % of Maximally Extractable Amo; Stabilizing effect in polypropylene, light exposure to break ([7]; 0.2% by wt. stabilizer): 277 h
C[C@@H]1CN(c2c([O-])c(=[N+]3C[C@@H](C)O[C@@H](C)C3)c2=O)C[C@H](C)O1 [E, 1,3-Bis(cis-2,6-dimethylmorpholino)cyclobutenediylium-2,4-diolate, reference compound]	473 h	432			
CC1(C)CC(N=c2c(O)c(NC3CC(C)(C)NC(C)(C)C3)c2=O)CC(C)(C)N1 [Example 1, 1,3-Bis[2,2,6,6-tetramethyl-4-piperidylamino]cyclobutenediylium-2,4-diolate]	1,076 h	790	< 20	150 (≈ 384 µM)	
CC1(C)CC(N=c2c(O)c(NC3CC(C)(C)NC(C)(C)C3)c2=O)CC(C)(C)N1 [Example 1.1, 1,3-bis[2,2,6,6-tetramethyl-4-piperidylamino]cyclobutenediylium-2,4-diolate]					Solubility of pure compound in 10% acetic acid [6]: 4.6 g/100 g 10% HAc
CC1(C)CC(N=c2c(O)c(NC3CC(C)(C)NC(C)(C)C3)c2=O)CC(C)(C)N1 [Example 1.2, 1,3-bis[2,2,6,6-tetramethyl-4-piperidylamino]cyclobutenediylium-2,4-diolate]	1,120 h	780			Solubility of pure compound in 10% acetic acid [6]: 2.4 g/100 g 10% HAc
CC1(C)CC(N=c2c(O)c(NC3CC(C)(C)NC(C)(C)C3)c2=O)CC(C)(C)N1 [Example 1.3, 1,3-bis[2,2,6,6-tetramethyl-4-piperidylamino]cyclobutenediylium-2,4-diolate]	976 h	683			Solubility of pure compound in 10% acetic acid [6]: 5.0 g/100 g 10% HAc
CC1(C)CC(N=c2c(O)c(NC3CC(C)(C)NC(C)(C)C3)c2=O)CC(C)(C)N1 [Example 1.4, 1,3-bis[2,2,6,6-tetramethyl-4-piperidylamino]cyclobutenediylium-2,4-diolate]					Solubility of pure compound in 10% acetic acid [6]: < 0.1 g/100 g 10% HAc
CC1(C)CC(N=c2c(O)c(NC3CC(C)(C)NC(C)(C)C3)c2=O)CC(C)(C)N1 [Example 1.5, 1,3-bis[2,2,6,6-tetramethyl-4-piperidylamino]cyclobutenediylium-2,4-diolate]	1,121 h	720			Solubility of pure compound in 10% acetic acid [6]: 0.9 g/100 g 10% HAc
CCCCN(c1c([O-])c(=[N+](CCCC)C2CC(C)(C)NC(C)(C)C2)c1=O)C1CC(C)(C)NC(C)(C)C1 [Example 3, 1,3-Bis[N-n-butyl-N-(2,2,6,6-tetramethyl-4-piperidyl)amino]cyclobutenediylium-2,4-diolate]			< 100	800 (≈ 1590 µM)	
CC(C)CN(c1c([O-])c(=[N+](CC(C)C)C2CC(C)(C)NC(C)(C)C2)c1=O)C1CC(C)(C)NC(C)(C)C1 [Example 4, 1,3-Bis[N-isobutyl-N-(2,2,6,6-tetramethyl-4-piperidyl)amino]cyclobutenediylium-2,4-diolate]			< 100	700 (≈ 1390 µM)	
CCCCCCN(c1c([O-])c(=[N+](CCCCCC)C2CC(C)(C)NC(C)(C)C2)c1=O)C1CC(C)(C)NC(C)(C)C1 [Example 5, 1,3-Bis[N-n-hexyl-(2,2,6,6-tetramethyl-4-piperidyl)amino]cyclobutenediylium-2,4-diolate]			< 100	300 (≈ 537 µM)	
CCCCCCCCN(c1c([O-])c(=[N+](CCCCCCCC)C2CC(C)(C)NC(C)(C)C2)c1=O)C1CC(C)(C)NC(C)(C)C1 [Example 6, 1,3-Bis[N-n-octyl-N-(2,2,6,6-tetramethyl-4-piperidyl)amino]cyclobutenediylium-2,4-diolate]			< 100	200 (≈ 325 µM)	
CC1(C)CC(N(CCO)c2c([O-])c(=[N+](CCO)C3CC(C)(C)NC(C)(C)C3)c2=O)CC(C)(C)N1 [Example 7, 1,3-Bis[N-2-hydroxyethyl-N-(2,2,6,6-tetramethyl-4-piperidyl)amino]cyclobutenediylium-2,4-diolate]					Stabilizing effect in polypropylene, light exposure to break [7]: 375 h
CC1(C)CC(OCCCN=c2c(O)c(NCCCOC3CC(C)(C)NC(C)(C)C3)c2=O)CC(C)(C)N1 [Example 9, 1,3-Bis[2,2,6,6-tetramethyl-4-piperidyloxypropylamino]cyclobutenediylium-2,4-diolate]	1,135 h	820	2400 (≈ 4740 µM)	9500 (≈ 18700 µM)	
CC(CO)N=c1c(O)c(NC(C)CO)c1=O (stereo not drawn) [F, 1,3-Bis[(2-hydroxy-1-methylethyl)amino]cyclobutenediylium-2,4-diolate, reference compound]					solubility [6]: 222000 µg/mL (≈ 973000 µM)
O=c1c(N2CCCCC2)c([O-])c1=[N+]1CCCCC1 [G, 1,3-Bispiperidinocyclobutenediylium-2,4-diolate, reference compound]	619 h	530			Stabilizing effect in polypropylene, light exposure to break ([7]; 0.2% by wt. stabilizer): 212 h
